The source of these data is ChEMBL document CHEMBL5052837, “Ghrelin o-acyltransferase inhibitors” (2019).

The source made the active and inactive calls. No cut-off for these calls is given here.

Assay [1] can be described thus: In vivo inhibition of GOAT in high fat, high carb (HFHC) diet-induced obesity model of C57BL/6 mouse assessed as reduction in acyl ghrelin level at 3 mg/kg. In kind it is functional. Further details: scale not given: the % may be the effect or the level left.
The subject of assay [2] is Mus musculus. In words: In vivo inhibition of GOAT in high fat, high carb (HFHC) diet-induced obesity model of C57BL/6 mouse assessed as increase in des-acyl ghrelin level at 3 mg/kg. In kind it is functional, organism-based.
Assay [3] concerns Mus musculus. In words: In vivo inhibition of GOAT in fasting mouse assessed as reduction in acyl ghrelin level at 1 to 10 mg/kg, po administered twice a day for 2 days. The following applies: dose 1-10 mg/kg, time 2.0 day. In kind it is functional, organism-based.
Assay [4] relates to Rattus norvegicus. In words: In vivo inhibition of GOAT in fasting rat assessed as reduction in acyl ghrelin level at 10 mg/kg. In kind it is functional, organism-based.
The test system of assay [5] is Rattus norvegicus. In words: In vivo inhibition of GOAT in fasting rat assessed as increase in des-acyl ghrelin level at 10 mg/kg. The format is functional, organism-based.
Assay [6] deals with Mus musculus. In words: In vivo inhibition of GOAT in high fat, high carb (HFHC) diet-induced obesity model of C57BL/6 mouse assessed as increase in des-acyl ghrelin level at 10 mg/kg. The format is functional, organism-based.

In the case of `Cc1c(C(=O)NN2CCCCC2)nn(-c2ccc(Cl)cc2Cl)c1-c1ccc(Cl)cc1` [RIMONABANT], the Activity in assay [1] came out at 61%. Also, the result in assay [2] was Active.

In the case of `O=C(O)Cc1csc2cc(O[C@H]3CCc4ncccc43)cc(Cl)c12`, the outcome in assay [3], in assay [4], in assay [5] and in assay [6] was Active.
